Measured values taken from patent US20060116328A1, “Combined use of carnosinase inhibitor with l-carnosines and composition” (priority 2003, published 2006).
Peptide text beside a SMILES is read from it.

What was measured:
tissue carnosinase = target: T1, tissue carnosinase (Rattus norvegicus, UniProt Q6Q0N1); assay: Hydrolysis of L-carnosine and related substance with tissue carnosinase in the absence or presence of a carnosinase inhibitor; assay type: biochemical, male Hairless rats; details: pH 7.0, 37° C.
T1 construct: Partially purified tissue carnosinase as a solution in 0.1M phosphate buffer (pH 7.0) is prepared from the crude brain extracts; from tissue; host or cells: brain of male Hairless rats
T1 sequence (Q6Q0N1 1-475): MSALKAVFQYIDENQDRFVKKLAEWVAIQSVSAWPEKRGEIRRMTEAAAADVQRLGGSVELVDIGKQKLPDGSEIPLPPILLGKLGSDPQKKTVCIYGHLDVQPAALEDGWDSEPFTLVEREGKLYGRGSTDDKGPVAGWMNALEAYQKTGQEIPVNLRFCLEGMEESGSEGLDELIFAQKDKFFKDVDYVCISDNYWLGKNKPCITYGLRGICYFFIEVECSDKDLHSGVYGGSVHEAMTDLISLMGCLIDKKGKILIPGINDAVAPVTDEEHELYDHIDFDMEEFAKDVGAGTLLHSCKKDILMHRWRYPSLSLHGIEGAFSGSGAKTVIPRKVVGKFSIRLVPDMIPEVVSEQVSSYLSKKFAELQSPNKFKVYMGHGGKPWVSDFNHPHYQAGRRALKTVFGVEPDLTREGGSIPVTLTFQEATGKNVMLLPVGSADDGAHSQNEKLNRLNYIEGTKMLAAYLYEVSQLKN
Description: Partially purified tissue carnosinase as a solution in 0.1M phosphate buffer (pH 7.0) is prepared from the crude brain extracts of male Hairless rats by a reported procedure (Y. Courbebaisse, G. Langrand, J -F. Nicolay and M. A. Babizhayev, Proceeding of 19th IFSCC Congress, Australia, Vol. 3, 1996, p. 1-12; M. A. Babizhayev et al., Letters in Peptide Science, Vol. 5, 163, 1998). A solution of the substrate (450 μl) in 0.1M phosphate buffer (pH 7.0) is incubated with the diluted enzyme solution (50 μl) at 37° C. for 120 min. in the absence or in the presence of a carnosinase inhibitor. Portions of the reaction mixture are taken at the time points of 0, 2, 3, 4, 5, 10, 20, 40, 60 min and dansylated with dansyl chloride (5 mg of dansyl chloride/ml of acetonitrile solution) at 50° C. for 15 min. The each portion is subjected to HPLC analysis on a column C18DB using a gradient method (A=0.02N acetic acid/acetonitrile, 90/10; B=acetonitrile). The rate of the peptide hydrolysis is determined by following the decrease of the area under the curve (AUC) of the dansylated substrate.

skin = assay: Cosmetic liposome composition applied on the skin of elderly volunteers; assay type: in vivo, human; details: 10 elderly subjects, applied on the skin twice daily for 15 days
cells = details: L-carnosine supplementation of tissue cultures; cited from earlier work
mice = mice supplemented with L-carnosine; cited from earlier work
solid tumor cell lines = assay: Growth inhibition and induction of apoptosis in solid tumor cell lines; assay type: cell-based
Description: The experimental design, details of experimental procedure and human leukemia cell lines were essentially the same as those reported by Sekine et al. (Int. J. Cancer, Vol. 94, 485, 2001). The carnosinase inhibitor bestatine was used in the range of 5-15 μg/ml of concentration and the concentration of the applied carnosine varied from 5-20 mM . […] Our study was performed with this combination to examine whether bestatin+carnosine can also induce apoptosis in solid tumor cell lines.

[1] = substrate L-Carnosine 0.08 mM + inhibitor 0.5 mM

`CC(=O)NCCC(=O)N[C@@H](Cc1cnc[nH]1)C(=O)O` [N-Acetyl-L-carnosine, N-acetyl-L-carnosine] gave a rate of hydrolysis (tissue carnosinase; substrate N-Acetyl-L-carnosine 0.08 mM alone (blank test)) of 1e-06 mol/min.

For `NCCC(=O)O` [β-alanine], the rate of hydrolysis (tissue carnosinase; [1]) was 5e-06 mol/min and the rate of hydrolysis (tissue carnosinase; substrate L-Carnosine 0.3 mM + inhibitor 0.5 mM) was 5.4e-05 mol/min.

For `NCCC(=O)N[C@@H](Cc1c[nH]cn1)C(=O)O` [L-Carnosine, β-alanyl-L-histidine], the skin pigmentation (skin) is listed as “only a little whitening activity”, the “increase in cellular life span” value (cells) is listed as 67% and the rate of hydrolysis (tissue carnosinase; L-Carnosine 0.08 mM + L-carnosine 0.3 mM (blank test)) is listed as 7.8e-05 mol/min. For the same molecule, the rate of hydrolysis (tissue carnosinase; substrate L-Carnosine 0.08 mM alone (blank test)) was 3.4e-05 mol/min, the rate of hydrolysis (tissue carnosinase; substrate L-Carnosine 0.3 mM alone (blank test)) was 7.8e-05 mol/min and the “average life span longer than non-treated mice” value (mice) was 20%.

For `COC(=O)[C@H](CC(C)C)NC(=O)[C@@H](O)[C@H](N)Cc1ccccc1` [bestatin methyl ester], the cell growth (solid tumor cell lines; used with L-carnosine, compared with L-carnosine only) was “inhibited cell growth more clearly than the case where only L-carnosine is used”.

For `NCC(=O)N[C@@H](Cc1cnc[nH]1)C(=O)O` [Gly-L-His] (H-Gly-His-OH), the rate of hydrolysis (tissue carnosinase; [1]) was 6e-06 mol/min.

In the case of `CC(C)C[C@H](NC(=O)[C@@H](O)[C@H](N)Cc1ccccc1)C(=O)O` [bestatine, bestatin, reference compound], the “growth inhibition and induction of apoptosis” value (solid tumor cell lines; bestatine 5-15 μg/ml, carnosine 5-20 mM) is reported as “neither direct growth inhibition nor induction of apoptosis” and the rate of hydrolysis (tissue carnosinase; substrate L-Carnosine 0.08 mM + inhibitor 0.5 nM) is reported as 2e-06 mol/min.

Work on `CC(=O)NCCC(=O)O` [N-acetyl-β-alanine] yielded a rate of hydrolysis (tissue carnosinase; [1]) of 3e-06 mol/min and a rate of hydrolysis (tissue carnosinase; substrate N-Acetyl-L-carnosine 0.08 mM + inhibitor 0.5 mM) of 3.5e-07 mol/min.

With `NCCCC(=O)NCCc1c[nH]cn1` [γ-aminobutyryl-histamine, γ-aminobutyrylhistamine] the rate of hydrolysis (tissue carnosinase; [1]) was 4.5e-06 mol/min.

`O=C(O)[C@H](Cc1cnc[nH]1)NC(=O)[C@@H]1CCCN1` [L-Pro-L-His] showed a rate of hydrolysis (tissue carnosinase; [1]) of 9e-06 mol/min.
